Experiment: Miscibility and mixing stability in formulations
Type: physicochemical

Measured: miscibility and mixing stability

CC(CC(=O)NCCOCCOCCNC(=O)CC(C)CC(C)(C)C)CC(C)(C)C (stereo not drawn) [Compound (K)]
excellent: O/W cream of Example 2, 3.5% | hair liquid composition of Example 4, 1.0% | night cream of Example 5, 10.0% | shampoo of Example 3, 2.0% | skin lotion of Example 1, 1.0% | sunscreen emulsion of Example 6, 3.0%

From patent US7550135B2, “Composition for external application” (Kao Corporation, priority 2001, dated 2009)
